In patent US20230026437A1, “BACTERIA-ASSOCIATED VOLATILE ORGANIC COMPOUNDS” (THE STATE OF ISRAEL, MINISTRY OF AGRICULTURE & RURAL …, priority 2019, published 2023):
Entries after “also recorded” stand apart in the source; their conditions may differ.

Legend:
[1] = test system: Macrophomina phaseolina, Rhizoctonia solani, Pythium aphanidermatum and Sclerotinia sclerotiorum; experiment: Antifungal activity of synthetic VOCs, plate assay; type: cell-based
Procedure: Antifungal activity of synthetic VOCs. The GC-MS identified VOCs produced by NYG5 were screened through literature for their any biological activity and the novel compound which were not tested so far were purchased as pure standard compound of the most representative VOCs from Hollan Moran Ltd., Israel. The pure synthetic compounds were tested against four different fungal pathogens (Macrophomina phaseolina, Rhizoctonia solani, […]) in small plastic petri plates. A freshly growing mycelial agar bid (4 mm) were placed in the center of PDA medium and one sterile paper disc (10 mm) were kept on the lid of the plate. After fungal inoculation, the tested compounds (10 μl for each) were placed on sterile filter disc and plates were double sealed with parafilm in inverted position having mycelium disc on the top side of the plate to check the direct effect of volatiles on mycelial growth. Three individual replicates were maintained for each treatment including control having sterile filter disc and solvent (70% ethanol) in which compounds were diluted. […] The plates were incubated at 25° C. and radial growth of fungal mycelial was measured at day interval until 3 days.

[2] = test system: Fusarium oxysporum f sp. Cubense; experiment: C3 against Fusarium oxysporum f sp. Cubense in-vitro; type: cell-based
Macrophomina = experiment: Effect of C3 on fungal morphology (actively growing mycelium); type: cell-based, Macrophomina phaseolina; conditions: C3 exposure, plate assay
N. tabacum = experiment: Effect of C3 on tobacco seedlings growth, two-compartment plate; type: in vivo, Nicotiana tabacum; conditions: 0.01 and 0.05 ppm, 14 days of growth
Description: Seeds of N. tabacum were placed on MS agar media in a two-compartment plate with C3 in different concentrations on a sterile paper disk on the other half of the plate without direct contact between the compartments. In the control treatments, a sterile disk with ethanol was used.

[3] = test system: Fusarium oxysporum spores; experiment: Effect of 2,3-Hexanedione (C3) on fungal spores in liquid; type: cell-based
Procedure: Effect of 2, 3-Hexanedione (C3) on fungal spores in liquid. To test the effect of C3 on spore germination, fungal spores were harvested after 3 days growth of Fusarium oxysporum in Potato Dextrose Broth medium with continuous shaking at 25° C. To collect the spores, 3 days old grown mycelial in broth medium was filtered through sterilized glass wools and filtrate was centrifuged at 4000 rpm. The supernatant was discarded, and pellet was suspended in sterilized water to a dilution of 10^6 (spores/ml) and counted through hemocytometer. Spore inhibition test was performed in 1.5 ml Eppendorf tube having 100 μl of 5×10^5 spores and mixed with a final concentration of 1 ppm, 10 ppm and 100 ppm of C3 compound. The tubes were tightly closed and sealed with parafilm and incubated at 25° C. Spore germination was observed under compound microscope by placing 20 μl of solution droplet from control and treatment on glass slide. The germination was reconfirmed by growing the 20 μl of solution from tube on PDA simultaneously to check the mycelial growth. All experiments had three individual replicates and repeated twice having identical conditions.

[4] = test system: Meloidogyne javanica larvae; experiment: In-vitro nematicidal activity of 2,3-Hexanedione (C3), two-compartment plate; type: in vivo; conditions: 2 days of exposure, no direct contact
Description: In-vitro nematicidal activity of 2, 3-Hexanedione (C3). Nematicidal efficacy of 2,3-Hexanedione had been tested against Meloidogyne javanica larvae. M. javanica eggs were extracted from the infected root of tomato Lycopersicon esculentum using standard protocol. The experiment was set up in a two-compartment plate to test the nematicidal activity of C3 compound against M. javanica larvae. One small glass vial was placed in one-half of compartment having 300 M. javanica larvae in 1000 of 0.001 M IVIES and sterile filter disc were kept in another compartment. The discs were spot with 10 μl of different concentration (0.05 and 0.5 ppm) of C3 compound and double sealed with parafilm. Each treatment had three independent replicates with control (without any compound only sterile disc). After 2 days of incubation M. javanica were carefully washed through 30 μm sieve and allowed to pass the sieve for 3 hours. All incubations were performed in the dark at 25±1° C. Survived M. javanica were counted under microscope.

Arabidopsis thaliana = experiment: Effect of 2,3-Hexanedione (C3) on A. thaliana growth, two-compartment plate; type: in vivo; conditions: 2 weeks of exposure
Procedure: Experimental set up for evaluation of 2,3-Hexanedione (C3) effect on Arabidopsis thaliana. Plant material and seed germination. A. thaliana (Ecotype Col-1) seeds were obtained from ARO Volcani center. The seeds were surface sterilized thrice with sterile distilled water and kept at 4° C. till 48 hours for stratification in dark on moist filter paper in petri plate. After two days of stratification the seeds were placed for germination on Murashige and Skoog (MS) medium with vitamins, 3% sucrose (30 g/1), and 0.03% phytagel (pH 5.7) for 3 days at 23° C. Effect of 2,3-Hexanedione (C3) on A. thaliana growth. Effect of 2,3-Hexanedione on A. thaliana development was evaluated in-vitro conditions in a two-compartment plate assay. Uniformly germinated seeds (5) were transplanted on MS medium in one side of compartment plate and another compartment was used to place the tested compound C3 similarly with other experiments. […] The control plants were maintained without any compound in two compartment petri plates. The plants were grown under 14-hour day/10-hour night cycles at 23° C. for 2 weeks and growth parameters were observed.

PR5 = experiment: Effect of C3 on PR gene expression in A. thaliana (qRT-PCR); type: in vivo, Arabidopsis thaliana; conditions: leaves, 7 days of exposure, no direct contact
Description: (§1) Effect of 2,3-Hexanedione (C3) on PR gene expression in A. thaliana. An individual experiment was designed similarly as described above to check the effect of 2,3-Hexanedione on PR gene induction in A. thaliana. The plants were exposed with 2,3-Hexanedione in a two compartment plates for one week. After one week, leaves from individual plants of each replicate were pooled separately for RNA isolation. Total RNA was isolated from the leaf tissue of plant using RNA isolation kit (Nucleo spin RNA Plant, MACHEREY-NAGEL) according the manufacturer's instruction. Before starting the protocol, leaves were ground under liquid N2 and 100 mg of grinded tissue was used for RNA isolation. RNA quantification was done using Qubit analyzer. Purified RNA was used for cDNA synthesis using first strand Invitrogen cDNA synthesis kit according the manufacturer's instructions with […] of RNA. Synthesized cDNA was diluted to 1000 times and 10 ul aliquots were stored for gene expression analysis. The relative gene expression level of PR1, PR2, PR5 and Actin (as internal control) were quantified for C3 exposed and control plants. For qRT PCR a 20 ul reaction was programmed at 95° C. denaturation for 1 min, followed by 40 cycles of amplification at 95° C. for 5s, 60° C. for 30s, and 72° C. for 30s.

PR1 gene = experiment: as above; type: in vivo, Arabidopsis thaliana; conditions: leaves, 7 days of exposure, no direct contact
Description: as §1

PR2 gene = experiment: as above; type: in vivo, Arabidopsis thaliana; conditions: leaves, 7 days of exposure, no direct contact
Description: as §1

| SMILES | effect on mycelial growth ([1]; higher concentrations, 100 and 500 ppm) | effect against the fungus ([2]; 50 ppm) | effect against the fungus ([2]; 200 ppm) | effect on actively-growing mycelia (Macrophomina) | plant biomass (N. tabacum) | primary roots length (N. tabacum) | germination of spores ([3]; 1 ppm in liquid, at least for 3 days) | growth of treated spores on PDA medium ([3]; C3-treated spores plated on PDA) | larval viability ([4]; 0.05 ppm) | nematicidal activity ([4]; 0.5 ppm) [%] | effect on fungi ([1]; 0.5 ppm) | effect of volatile exposure on all tested fungal pathogens ([1]; volatile exposure) | effect on plant growth parameters (Arabidopsis thaliana; 0.005 ppm and 0.5 ppm) | effect on plant growth (Arabidopsis thaliana; 0.05 ppm) | PR5 at transcriptional level (PR5) | induction of PR1 gene (PR1 gene) [fold] | upregulation of PR2 gene transcript (PR2 gene) [fold] |
| --- | --- | --- | --- | --- | --- | --- | --- | --- | --- | --- | --- | --- | --- | --- | --- | --- | --- |
| CC(=O)CCC(C)C [Compound C2, 5-Methyl-2-hexanone] | inhibitory effect |  |  |  |  |  |  |  |  |  |  |  |  |  |  |  |  |
| CCCC(=O)C(C)=O [Compound C3, 2,3-Hexanedione] |  | inhibitory effect | lethal effect | mycelium growth inhibition | significantly enhanced | longer | no germination | no growth was observed | significantly reduced | 80 | lethal | fungicidal effect | did not show any effect | enhanced the growth; also recorded: significant increase | no significant difference | 3 | 5 |
